From ChEMBL document CHEMBL1201862, “PubChem BioAssay data set” (2004) come the findings set out here.

The structures appear in SMILES notation. Calls of active or inactive are those of the source.

Assay [1] in a line: blockade of melanocortin 4 receptor signaling – cell-based, plate reader, cherry pick, counter-screen for LGR2 antagonist project, dose response (AID 743444).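 Also: transfected HEK 293 cells stimulated with alpha-MSH peptide; potency of inhibitors of the alpha-MSH evoked signal.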 It counts as functional.
The subject of a further assay is Jurkat. The assay is described as follows: blockers of NF-kB activation in T cells – Jurkat, luciferase reporter, luminescence, B- and T-cell, dose response (AID 489004).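 Also: NF-kB luciferase reporter Jurkat cells stimulated with PMA plus ionomycin.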 It counts as functional, cell-based. The conditions noted are these: Homo sapiens.
A short description of assay [2]: Luminescence Cell-Based Dose Confirmation HTS to Identify Inhibitors of Platelet Dense Granule Release. [Related pubchem assays: 1663 (Primary HTS), 1678 (Summary of Project)]. The class given is functional.
The nature of assay [3]: loss of viability in HepG2 cells – cell-based, CellTiter-Glo, cherry-picked, cytotoxicity control for Shn3 inhibitor project, dose response (AID 624134). It counts as functional.
Assay [4] can be described thus: viability loss in HEK293 cells – cell-based, plate reader, cherry-picked samples, cytotoxicity control, dose response (AID 743446). The class given is functional.
A short description of assay [5]: HEK-293T viability loss, compound-treated – cell-based, uHTS hits, cytotoxicity control for B/T-cell NF-kB inhibitor project, dose response (AID 489019).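 Also: IC50 reflects cytotoxicity as loss of cell viability.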 It counts as functional.
Assay [6] can be described thus: general cell-killing toxicity readout – plate reader, dry powder samples, cytotoxicity control for PAX8 inhibitor project, dose response (AID 743021). It counts as functional, cell-based.
In a further assay the target is Paired box protein Pax-8 (Homo sapiens, UniProt Q06710). The assay is described as follows: PAX8 transcriptional activity inhibition in RMG-I – RMG-I cells, luciferase, cherry-pick, dose response (AID 687027).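 Also: luciferase reporter driven by Pax8 target thyroperoxidase promoter measured by SteadyGlo luminescence.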 It counts as functional, cell-based.
Assay [7] is described as follows: toxicity toward HepG2 liver cells – cell-based, plate reader, cherry-pick, antagonist series, cytotoxicity control, dose response (AID 743416). The class given is functional.
Assay [8] in a line: reduction of Shn3 3'UTR-driven luciferase in osteoblasts – cell-based, Clone20 osteoblasts, firefly luciferase, cherry-picked, dose response (AID 624132).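 Also: firefly luciferase luminescence from reporter carrying the Shn3 3'UTR in osteoblasts.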 It counts as functional.
Assay [9] deals with Luciferin 4-monooxygenase (Photinus pyralis, UniProt P08659). The assay is described as follows: inhibition of purified Photinus pyralis luciferase – biochemical, luminescence, dose response (AID 1891).
The nature of assay [10]: blockers of bursicon-stimulated LGR2 cAMP reporter – cell-based, HEK293, CRE-luciferase reporter, cherry pick, set 2, dose response (AID 743343).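 Also: transfected cells were stimulated with diluted bursicon conditioned medium after compound addition.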 The class given is functional.
Assay [11] is described as follows: A549 cell cytotoxicity, dose response, cytotoxicity control, plate reader, cherry-pick, antagonist series (AID 743412). It counts as functional, cell-based.
Assay [12] can be described thus: luciferase reporter signal suppression in cells – H4 neuroglioma cells, luminescence, dose response (AID 1990). It counts as functional, cell-based.
Assay [13] in a line: alpha-synuclein stem-loop luciferase translation blockers – H4 neuroglioma cells, luminescence, confirmation (AID 1988). It counts as functional, cell-based.
Assay [14] in a line: Luminescence Cell-Based Dose Response HTS to Identify Inhibitors of 5'UTR Stem-Loop Driven Prion Protein mRNA Translation in H4 Neuroglioblastoma Cells. [Related pubchem assays: 1827 (Project Summary), 1813 (Primary HTS)]. The class given is functional.
The next assay concerns A-375. As to the kind of experiment: MITF: Counter assay: A375 proliferation Measured in Cell-Based System Using Plate Reader - 2084-03_Inhibitor_Dose_DryPowder_Activity. [Related pubchem assays (depositor defined):AID488944]. The class given is functional. To be noted: Homo sapiens.
For assay [15], the target named is T1, Nuclear receptor subfamily 0 group B member 1 (Homo sapiens, UniProt P51843).
T1 sequence (P51843 whole entry): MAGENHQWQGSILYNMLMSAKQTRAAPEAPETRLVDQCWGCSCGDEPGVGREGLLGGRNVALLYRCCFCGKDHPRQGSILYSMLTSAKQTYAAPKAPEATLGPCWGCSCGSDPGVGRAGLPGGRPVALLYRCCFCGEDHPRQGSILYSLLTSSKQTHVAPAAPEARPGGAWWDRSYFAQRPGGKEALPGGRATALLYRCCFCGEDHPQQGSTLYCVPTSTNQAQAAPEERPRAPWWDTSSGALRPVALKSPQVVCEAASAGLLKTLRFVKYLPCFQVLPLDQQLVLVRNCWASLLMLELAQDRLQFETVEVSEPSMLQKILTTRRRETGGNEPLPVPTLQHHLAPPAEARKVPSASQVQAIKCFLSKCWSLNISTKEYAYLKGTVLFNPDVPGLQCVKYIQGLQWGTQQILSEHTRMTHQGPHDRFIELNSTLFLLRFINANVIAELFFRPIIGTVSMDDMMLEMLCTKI
As to the kind of experiment: Luminescence-based cell-based high throughput dose response assay for inhibitors of the orphan nuclear receptor subfamily 0, group B, member 1 (DAX1; NR0B1). [Related pubchem assays (depositor defined):AID504766, AID504790]. It counts as functional.

In the next assay the test system is HEK293. The assay is described as follows: cells. It counts as functional, cell-based. To be noted: Homo sapiens.
The target in assay [16] is Beta-2 adrenergic receptor (Homo sapiens, UniProt P07550). The assay is described as follows: ADRB2 activation measured by internalization – cell-based, FAP fluorogen, flow cytometry, cherry pick 1, dose response (AID 588763). It counts as functional.
The target of assay [17] is CAAX prenyl protease 2 (Saccharomyces cerevisiae S288c, UniProt Q03530). The class given is biochemical.
Assay [18] has as its target CAAX prenyl protease 2 (Homo sapiens, UniProt Q9Y256). The assay is described as follows: inhibition of Ras-converting CAAX protease Rce1 – biochemical, yeast membranes, quenched-peptide fluorescence, cherry-pick, dose response (AID 588849).
Assay [19] is described as follows: NIH-3T3 fibroblast cytotoxicity, dose response, cytotoxicity control, cell-based, fluorescence, Alamar Blue, secondary assay (AID 2327).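 Also: NIH-3T3 mouse fibroblasts cultured with fluconazole at 8 µg/mL.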 The class given is functional.
The nature of assay [20]: fluconazole-exposed Candida albicans growth modulators – fluorescence, retest, confirmation (AID 2467). It counts as functional, cell-based.

Beta-2 adrenergic receptor, sequence (P07550 whole entry): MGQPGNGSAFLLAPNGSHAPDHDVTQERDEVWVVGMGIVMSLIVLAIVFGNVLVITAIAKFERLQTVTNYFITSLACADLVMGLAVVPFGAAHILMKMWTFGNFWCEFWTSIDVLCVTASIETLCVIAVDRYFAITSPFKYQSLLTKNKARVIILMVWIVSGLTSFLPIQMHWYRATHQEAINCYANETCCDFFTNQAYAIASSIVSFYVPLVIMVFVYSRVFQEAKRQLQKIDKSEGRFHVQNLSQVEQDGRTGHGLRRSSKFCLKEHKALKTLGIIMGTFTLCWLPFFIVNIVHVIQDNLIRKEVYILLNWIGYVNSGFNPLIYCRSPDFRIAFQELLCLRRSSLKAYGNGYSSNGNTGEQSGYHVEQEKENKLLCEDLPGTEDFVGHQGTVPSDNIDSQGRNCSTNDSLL
Paired box protein Pax-8, sequence (Q06710 whole entry): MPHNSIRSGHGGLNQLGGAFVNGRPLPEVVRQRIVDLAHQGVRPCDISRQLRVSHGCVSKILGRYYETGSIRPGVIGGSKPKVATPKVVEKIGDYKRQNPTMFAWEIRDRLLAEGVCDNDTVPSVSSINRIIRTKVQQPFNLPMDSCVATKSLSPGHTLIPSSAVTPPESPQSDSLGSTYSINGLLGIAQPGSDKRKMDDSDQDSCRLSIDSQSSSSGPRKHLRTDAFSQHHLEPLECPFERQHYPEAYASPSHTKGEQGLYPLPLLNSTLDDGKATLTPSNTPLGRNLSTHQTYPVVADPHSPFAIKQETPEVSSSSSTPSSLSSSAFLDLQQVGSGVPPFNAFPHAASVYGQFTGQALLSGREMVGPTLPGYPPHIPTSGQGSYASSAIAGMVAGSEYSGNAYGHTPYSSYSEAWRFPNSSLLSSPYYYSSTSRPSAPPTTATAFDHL
CAAX prenyl protease 2 (Homo sapiens, UniProt Q9Y256), sequence (Q9Y256 whole entry): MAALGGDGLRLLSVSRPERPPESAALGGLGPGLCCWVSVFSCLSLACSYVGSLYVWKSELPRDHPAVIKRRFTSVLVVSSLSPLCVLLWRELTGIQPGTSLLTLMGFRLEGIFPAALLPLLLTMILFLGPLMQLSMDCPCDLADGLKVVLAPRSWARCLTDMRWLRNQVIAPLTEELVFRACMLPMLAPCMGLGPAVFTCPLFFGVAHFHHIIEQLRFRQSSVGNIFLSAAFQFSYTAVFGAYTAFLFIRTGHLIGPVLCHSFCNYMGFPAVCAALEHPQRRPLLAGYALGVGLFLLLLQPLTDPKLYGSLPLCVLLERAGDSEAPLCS
Luciferin 4-monooxygenase, sequence (P08659 whole entry): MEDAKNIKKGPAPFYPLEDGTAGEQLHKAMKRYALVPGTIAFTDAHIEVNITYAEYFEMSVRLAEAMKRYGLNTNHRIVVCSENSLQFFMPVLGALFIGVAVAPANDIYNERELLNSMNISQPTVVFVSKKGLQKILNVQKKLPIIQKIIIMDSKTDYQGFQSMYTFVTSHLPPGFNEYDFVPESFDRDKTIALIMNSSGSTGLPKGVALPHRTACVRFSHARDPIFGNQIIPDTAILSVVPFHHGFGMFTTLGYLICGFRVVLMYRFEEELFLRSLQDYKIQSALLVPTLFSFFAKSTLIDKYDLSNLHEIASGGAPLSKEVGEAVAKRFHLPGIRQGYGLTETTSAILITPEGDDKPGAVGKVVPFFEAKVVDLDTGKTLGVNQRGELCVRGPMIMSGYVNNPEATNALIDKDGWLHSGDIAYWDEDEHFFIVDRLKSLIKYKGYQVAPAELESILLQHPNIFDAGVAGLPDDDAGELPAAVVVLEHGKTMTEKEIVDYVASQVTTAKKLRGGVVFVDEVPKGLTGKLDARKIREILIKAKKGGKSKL
CAAX prenyl protease 2 (Saccharomyces cerevisiae S288c, UniProt Q03530), sequence (Q03530 whole entry): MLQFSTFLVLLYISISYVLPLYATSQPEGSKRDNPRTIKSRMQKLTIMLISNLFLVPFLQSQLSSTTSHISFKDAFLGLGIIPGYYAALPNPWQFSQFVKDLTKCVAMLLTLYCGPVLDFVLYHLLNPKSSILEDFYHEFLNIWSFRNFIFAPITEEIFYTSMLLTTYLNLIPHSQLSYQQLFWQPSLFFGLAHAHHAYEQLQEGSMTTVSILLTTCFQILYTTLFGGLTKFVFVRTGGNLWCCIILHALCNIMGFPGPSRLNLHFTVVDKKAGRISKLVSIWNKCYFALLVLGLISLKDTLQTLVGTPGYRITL

For `COCCn1c(C)cc(C2=NN=C(NC3CC3)SC2)c1C`, the AC50 in [1] was 282 nM (active); in assay [3], 46.1 µM (active); in assay [4], 29.2 µM (active); in assay [6], 12.1 µM (active); at Paired box protein Pax-8, < 260 nM (active); in assay [7] it was 26.7 µM (active). Also, the AC50 in assay [8] was < 260 nM (active); in [10] it was 215 nM (active); in assay [11], 22.4 µM (active). The half-maximal inhibitory concentration (IC50) was 220 nM (active) in the assay with Jurkat and > 80 µM (inactive) in assay [5]. In addition, the EC50 in assay [2] was 2.14 µM (active); in assay [9], 7.61 µM (active).

Take `CC1CC2(C)Oc3ccccc3CC2C(C)C1CNCCCN(C)C` (configuration not stated): the EC50 in [12], in assay [13] and in assay [14] was > 120 µM (not active) each time. The AC50 in the assay with A-375 is 29.8 µM (active).

On to `O=C(O)c1ccc(N/N=C/C2=Cc3ccccc3OC2)cc1`, for which the IC50 (in assay [15]; in the assay with HEK293) was > 67.6 µM (inactive) in each case.

As to `CCCCNc1cc(=O)n(C)c(=O)[nH]1`, the IC50 (in assay [15]; in the assay on HEK293) was > 67.5 µM (inactive) throughout.

On to `CCn1c(COc2ccc(Cl)cc2)nnc1SCc1ccc(C#N)cc1`, for which the EC50 in assay [16] is 2.11 µM (active).

Turning to `O=C(OC[C@@H]1CCCN2CCCC[C@H]12)c1cc2ccccc2oc1=O`, the AC50 on CAAX prenyl protease 2 [17] was 16.3 µM (active); on CAAX prenyl protease 2 [18], 55.9 µM (active).

Turning to `Cc1ccc(OCc2cc(C(=O)NCc3cnn(-c4cccc(F)c4)c3)no2)cn1`, the EC50 is > 160 µM (inactive) in assay [19], 0.195 µM (active) in assay [16] and 964 nM (active) in [20].
